In patent publication US7208314B2, “Compositions and methods for drug delivery using pH sensitive molecules” (priority 2002, dated 2007):
Ends that are not written are not given here.

Legend:
red blood cells = assay: Blood lysis experiment on melittin conjugated to microspheres via ketal; format: cell-based
Procedure: The microspheres were taken up in H2O (500 μL) and partitioned into five 100 μL samples. Four of the samples were diluted to 1000 μL with sodium phosphate buffer (100 mM) at pH 7.5, 6.0, 5.5, and 5.0. Samples were held at 37° C., spun down, and 150 μL aliquots taken at 30 min, 60 min, 90 min, and 16 hrs. A portion of each sample (100 μL) was diluted with sodium phosphate buffer (400 μL, pH 7.5) and added to red blood cells (100 μL, pH 7.5). Red blood cell lysis was measured after 10 min by measuring the absorbance at 541 nm. A control sample was also measured in which 100% of the red blood cells had been lysed with melittin alone.
The fifth 100 μL sample was further divided into 25 μL samples, three of which were diluted to 250 μL with sodium phosphate buffer (100 mM) at pH 7.5, 6.0, and 5.0. The samples were held at 37° C. for 30 min, spun down and the supernatant removed, and resuspended in 2.5 M NaCl solution (50 μL) and mixed. After 10 min the microspheres were spun down and the supernatant removed. The samples were added to red blood cells (500 μL, 100 mM) and the absorbance was measured at 541 nm.

cells = format: cell-based; conditions: for Relative Light Units (luciferase expression): pCIluc DNA/poly-L-lysine complex plus 40 μg modified lipid, 48 h; for Relative Light Units relative to poly-L-lysine (no lipid): value in parentheses
[1] = Hemolysis assay: melittin or KL3 blocked by anionic polymer or dimethylmaleic anhydride; format: cell-based; conditions: pH 7.5; 30 minutes, 37 C; read-out: Percent hemolysis
Procedure: The membrane-disruptive activity of the peptide melittin and subsequent blocking of activity by anionic polymers was measured using a red blood cell (RBC) hemolysis assay. RBCs were harvested by centrifuging whole blood for 4 min. They were washed three times with 100 mM dibasic sodium phosphate at the desired pH, and resuspended in the same buffer to yield the initial volume. They were diluted 10 times in the same buffer, and 200 uL of this suspension was used for each tube. This yields 10 ? 8 RBCs per tube. Each tube contained 800 uL of buffer, 200 uL of the RBC suspension, and the peptide with or without polymer. Each sample was then repeated to verify reproducibility. The tubes were incubated for 30 minutes in a 37 C water bath. They were spun for 5 min at full speed in the microcentifuge. Lysis was determined by measuring the absorbance of the supernatant at 541 nm, reflecting the amount of hemoglobin that had been released into the supernatant. Percent hemolysis was calculated assuming 100% lysis to be measured by the hemoglobin released by the red blood cells in water; controls of RBCs in buffer with no peptide were also run.

[2] = test system: 3T3 mouse embryonic fibroblast cells; assay: In vitro transfection with DNA-PLL-KL3 and dimethylmaleamic KL3, luciferase expression; format: cell-based
Procedure: To a complex of plasmid DNA pCIluc (10 μg/mL, 0.075 mM in phosphate, 2.6 μg/μL pCIluc; prepared according to Danko, I., Williams, P., Herweijer, H. Zhang, G., Latendresse, J. S., Bock, I., Wolff, J. A. Hum. Mol. Genetics 1997, 6, 1435.) and poly-L-lysine (40 μg/mL) in 0.5 mL of 5 mM HEPES pH 7.5 was added succinylated poly-L-lysine (34,000 MW, Aldrich Chemical), 2,3-dimethylmaleamic melittin and 2,3-dimethylmaleamic KL3. The DNA-poly-L-lysine-2,3-dimethylmaleamic peptide complexes were then added (200 μL) to wells containing 3T3 mouse embryonic fibroblast cells in 290 mM glucose and 5 mM HEPES buffer pH 7.5. After 1.5 h, the glucose media was replaced with Dubelco's modified Eagle Media and the cells were allowed to incubate for 48 h. The cells were then harvested and then assayed for luciferase expression as previously reported (Wolff, J. A., Malone, R. W., Williams, P., Chong, W., Acsadi, G., Jani, A. and Felgner, P. L. Direct gene transfer into mouse muscle in vivo. Science, 1465–1468, 1990.). A Lumat LB 9507 (EG&G Berthold, Bad-Wildbad, Germany) luminometer was used. The amount of transfection was reported in relative light units and is the average transfection for two separate wells of cells.

[3] = Kinetics of conversion of dimethylmaleamic modified amines to amines at pH 5 (trinitrobenzenesulfonate); format: physicochemical
Procedure: Dimethyl maleamic modified poly-L-lysine (10 mg/mL) was incubated in 10 mM sodium acetate buffer pH 5. At various times, aliquots (10 μg) were removed and added to 0.5 mL of 100 mM borax solution containing 0.4 mM trinitrobenzenesulfonate. A half an hour later, the absorbance of the solution at 420 nm was measured. To determine the concentration of amines at each time point, the extinction coefficient was determine for the product of trinitrobenzenesulfonate and poly-L-lysine. Using this extinction coefficient we were able to calculate the amount of amines and maleamic groups at each time point. A plot of ln (At/A0) as a function of time was a straight line whose slope is the negative of the rate constant for the conversion of maleamic acid to amine and anhydride, where At is the concentration of maleamic acid at a time t and A0 is the initial concentration of maleamic acid. For two separate experiments we calculated rate constants of […] which correspond to half lives of roughly 10 and 4 minutes respectively.
Dimethyl maleamic modified KL3 (0.1 mg/mL) was incubated in 40 mM sodium acetate buffer pH 5 and 1 mM cetyltrimetylammonium bromide. At various times, aliquots (10 μg) were removed and added to 0.05 mL of 1 M borax solution containing 4 mM trinitrobenzenesulfonate. A half an hour later, the absorbance of the solution at 420 nm was measured. […]

[4] = 15 mM sodium acetate pH 5 buffer
Procedure: The absorbance of the solution at 225 nm, which is the wavelength at which enol ethers absorb (Kresge, A. J.; Sagatys, D. S.; Chen, H. L. J. Am. Chem. Soc. 1977, 99, 7228) was measured over time.
The absorbance of the solution at 225 nm was measured as a function of time.

Melittin Conjugated to Microspheres: melittin attached to carboxylic acid modified microspheres via Di-(2-methyl-4-hydroxymethyl-1,3-dioxolane)-1,4-benzene ketal
A541 (red blood cell lysis) (red blood cells; 30 min pH 5.0, 37° C.): 0.659 | A541 (red blood cell lysis) (red blood cells; 30 min pH 5.5, 37° C.): 0.609 | A541 (red blood cell lysis) (red blood cells; 30 min pH 6.0, 37° C.): 0.326 | A541 (red blood cell lysis) (red blood cells; 30 min pH 7.5, 37° C.): 0.026 | A541 (red blood cell lysis) (red blood cells; 60 min pH 5.0, 37° C.): 0.730 | A541 (red blood cell lysis) (red blood cells; 60 min pH 5.5, 37° C.): 0.526 | A541 (red blood cell lysis) (red blood cells; 60 min pH 6.0, 37° C.): 0.212 | A541 (red blood cell lysis) (red blood cells; 60 min pH 7.5, 37° C.): 0.027 | A541 (red blood cell lysis) (red blood cells; 90 min pH 5.0, 37° C.): 0.892 | A541 (red blood cell lysis) (red blood cells; 90 min pH 5.5, 37° C.): 0.640 | A541 (red blood cell lysis) (red blood cells; 90 min pH 6.0, 37° C.): 0.390 | A541 (red blood cell lysis) (red blood cells; 90 min pH 7.5, 37° C.): 0.036 | A541 (red blood cell lysis) (red blood cells; 16 hrs pH 5.0, 37° C.): 1.163 | A541 (red blood cell lysis) (red blood cells; 16 hrs pH 5.5, 37° C.): 0.796 | A541 (red blood cell lysis) (red blood cells; 16 hrs pH 6.0, 37° C.): 0.354 | A541 (red blood cell lysis) (red blood cells; 16 hrs pH 7.5, 37° C.): 0.065 | time of rapid release of modified peptide (red blood cells; all acidic pH levels tested): < 30 min | release of modified peptide from the microsphere (red blood cells; pH 7.5): not released | A541 (red blood cell lysis) (red blood cells; second experiment, 30 min pH 5.0 supernatant): 0.685 | A541 (red blood cell lysis) (red blood cells; second experiment, 30 min pH 6.0 supernatant): 0.213 | A541 (red blood cell lysis) (red blood cells; second experiment, 30 min pH 7.5 supernatant): 0.053 | A541 (red blood cell lysis) (red blood cells; second experiment, pH 5.0, 2.5 M NaCl wash): 0.101 | A541 (red blood cell lysis) (red blood cells; second experiment, pH 6.0, 2.5 M NaCl wash): 0.162 | A541 (red blood cell lysis) (red blood cells; second experiment, pH 7.5, 2.5 M NaCl wash): 0.087

CCCCCCCC/C=C\CCCCCCCC(=O)OC[C@H](COP(=O)(O)OCCNC(=O)/C(C)=C(/C)C(=O)O)OC(=O)CCCCCCC/C=C\CCCCCCCC [2,3-dimethylmaleamic-modified DOPE]
Relative Light Units (luciferase expression) (cells): 243359 Relative Light Units | Relative Light Units relative to poly-L-lysine (no lipid) (cells): 40

KLLKLLLKLWLKLLKLLLKLL [KL3]
hemolysis [1]: 86% | Relative Light Units (luciferase expression) ([2]; pCIluc DNA/poly-L-lysine complex plus named additive, 48 h, average of two wells): 261 Relative Light Units | Relative Light Units relative to Succinylated poly-L-lysine ([2]; value in parentheses): 0.04

C/C(C(N)=O)=C(\CCC(=O)O)C(=O)O [2-propionic-3-methylmaleamic acid]
rate of maleamic acid cleavage compared [3]: the same as that for 2,3-dimethylmaleamic acids

glycolic acid ethoxylate(4 units) 4-tert-buty-1,4-cyclohexadiene ether
rate constant of enol ether hydrolysis [4]: 0.0159 min⁻¹

CCCCCCCC/C=C\CCCCCCCC(=O)OCC(COC(=O)/C(C)=C(/C)C(=O)O)OC(=O)CCCCCCC/C=C\CCCCCCCC (stereo not drawn) [2,3-dimethylmaleamic-modified DOG]
Relative Light Units (luciferase expression) (cells): 193624 Relative Light Units | Relative Light Units relative to poly-L-lysine (no lipid) (cells): 32
